Laboratory results taken from patent US6914064B2, “1,4-Disubstituted piperazine derivatives useful as uro-selective α1-adrenoceptor blockers” (Ranbaxy Laboratories Limited, priority 2000, dated 2005).
Where two headings read alike, the source gives them in different places.

Experiments:
[1] = molecular target: T1, α1A adrenoceptor (prostate) (Rattus norvegicus, UniProt P43140); assay: In vitro functional study, antagonism of phenylepinephrine-induced contraction of prostate; format: biochemical; settings: for Selectivity α1A/α1B / Selectivity α1A/α1D: functional assays, from pKB values; for Kb: prostate, phenylepinephrine, tested compound at 0.1, 1 and 10 mM, read-out: α Adrenoceptor Subtype (pKB) α1A (converted)
T1 construct: from tissue; host or cells: isolated prostate tissue
T1 sequence (P43140 1-466): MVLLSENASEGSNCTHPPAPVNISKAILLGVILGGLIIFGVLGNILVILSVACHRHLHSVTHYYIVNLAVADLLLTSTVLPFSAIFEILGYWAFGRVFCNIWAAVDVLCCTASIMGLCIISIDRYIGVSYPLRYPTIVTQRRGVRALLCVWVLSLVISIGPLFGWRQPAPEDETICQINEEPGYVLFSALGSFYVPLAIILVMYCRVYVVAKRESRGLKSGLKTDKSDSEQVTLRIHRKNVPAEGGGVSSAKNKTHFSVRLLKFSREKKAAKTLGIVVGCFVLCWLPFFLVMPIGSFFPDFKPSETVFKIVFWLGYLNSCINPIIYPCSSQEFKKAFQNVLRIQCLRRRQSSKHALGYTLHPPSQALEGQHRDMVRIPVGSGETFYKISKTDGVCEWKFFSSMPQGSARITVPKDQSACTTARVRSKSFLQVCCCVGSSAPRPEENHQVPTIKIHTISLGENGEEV
Text: (§1) In order to study selectivity of action of these compounds towards different α-adrenoceptor subtypes, the ability of these compounds to antagonise α1-adrenoceptor agonist induced contractile response on aorta (α1Dprostate (α1A and spleen (α1B was studied. Aorta and spleen tissues were isolated from urethane anaesthetised (1.5 gm/kg) male wistar rats. Isolated tissues were mounted in organ bath containing Krebs Henseleit buffer of following composition (mM): NaCl 118; KCl 4.7; CaCl2 2.5; MgSO4. 7H2O 1.2; NaHCO3 25; KH2PO41.2; glucose 11.5. Buffer was maintained at 37° C. and aereated with a mixture of 95% O2 and 5% CO2. A resting tension of 2 g (aorta) or 1 g (spleen and prostate)was applied to tissues. Contractile response was monitored using a force displacement transducer and recorded on chart recorders. Tissues were allowed to equilibrate for 2 hours. At the end of equilibration period, concentration response curves to norepinephrine (aorta) and phenylepinephrine (spleen and prostate) were obtained in absence and presence of tested compound (at concentration of 0.1,1 and 10 mM). Antagonist affinity was calculated and expressed as pKB vales in Table II.

[2] = molecular target: T2, α1B adrenoceptor (spleen) (Rattus norvegicus, UniProt P15823); assay: In vitro functional study, antagonism of phenylepinephrine-induced contraction of spleen; format: biochemical; settings: tested compound at 0.1, 1 and 10 mM, read-out: α Adrenoceptor Subtype (pKB) α1B (converted)
T2 construct: Isolated tissues were mounted in organ bath containing Krebs Henseleit buffer; from tissue; host or cells: isolated spleen of male wistar rats
T2 sequence (P15823 1-515): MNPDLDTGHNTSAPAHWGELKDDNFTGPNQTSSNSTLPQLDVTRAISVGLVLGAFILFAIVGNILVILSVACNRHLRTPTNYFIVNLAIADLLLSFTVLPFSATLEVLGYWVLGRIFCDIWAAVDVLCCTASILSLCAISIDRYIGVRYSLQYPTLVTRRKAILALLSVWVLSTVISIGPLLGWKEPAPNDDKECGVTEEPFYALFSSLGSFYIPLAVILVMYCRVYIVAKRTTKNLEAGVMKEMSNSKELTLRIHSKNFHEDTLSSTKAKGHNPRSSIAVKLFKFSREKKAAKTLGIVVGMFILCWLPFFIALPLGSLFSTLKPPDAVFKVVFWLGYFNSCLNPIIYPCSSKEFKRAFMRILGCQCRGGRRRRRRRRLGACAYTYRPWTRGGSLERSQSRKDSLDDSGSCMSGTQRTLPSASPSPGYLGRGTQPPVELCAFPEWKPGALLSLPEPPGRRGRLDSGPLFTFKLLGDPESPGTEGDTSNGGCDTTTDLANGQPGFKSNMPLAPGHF
Text: as §1

α1D adrenoceptor (aorta) = molecular target: T3, α1D adrenoceptor (aorta) (Rattus norvegicus, UniProt P23944); assay: In vitro functional study, antagonism of norepinephrine-induced contraction of aorta; format: biochemical; settings: tested compound at 0.1, 1 and 10 mM, read-out: α Adrenoceptor Subtype (pKB) α1D (converted)
T3 construct: Isolated tissues were mounted in organ bath containing Krebs Henseleit buffer; from tissue; host or cells: isolated aorta of male wistar rats
T3 sequence (P23944 1-561): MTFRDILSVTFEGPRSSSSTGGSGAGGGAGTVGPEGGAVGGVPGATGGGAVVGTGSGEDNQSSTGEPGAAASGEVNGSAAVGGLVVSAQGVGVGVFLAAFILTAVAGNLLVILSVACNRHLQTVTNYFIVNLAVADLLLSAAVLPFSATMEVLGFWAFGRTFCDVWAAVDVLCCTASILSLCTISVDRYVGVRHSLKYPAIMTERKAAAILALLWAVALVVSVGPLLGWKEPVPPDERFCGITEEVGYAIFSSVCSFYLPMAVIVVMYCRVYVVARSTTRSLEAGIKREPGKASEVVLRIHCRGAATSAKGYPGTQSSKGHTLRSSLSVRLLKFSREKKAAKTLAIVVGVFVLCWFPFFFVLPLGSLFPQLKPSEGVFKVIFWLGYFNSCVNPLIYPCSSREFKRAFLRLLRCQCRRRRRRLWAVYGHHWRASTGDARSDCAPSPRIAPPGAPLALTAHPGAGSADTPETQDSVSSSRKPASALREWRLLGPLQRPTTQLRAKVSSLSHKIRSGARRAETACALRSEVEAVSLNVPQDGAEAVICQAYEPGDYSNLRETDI
Text: as §1

α1A adrenoceptor = molecular target: T4, α1A adrenoceptor (Rattus norvegicus, UniProt P43140); assay: Receptor binding assay, displacement of [3H]prazosin, rat submaxillary membranes; settings: for Selectivity α1B/α1A: ratio of Ki α1B (rat liver) / α1A (rat submaxillary)
T4 construct: from tissue; host or cells: rat submaxillary gland membranes
T4 sequence (P43140 1-466): T1 sequence (P43140 1-466)
Description: Receptor binding assays were performed using native α-adrenoceptors.
(§2) Submaxillary glands were isolated immediately after sacrifice. The liver was perfused with buffer (Tris HCl 50 mM, NaCl 100 mM, 10 mM EDTA pH 7.4). The tissues were homogenised in 10 volumes of buffer (Tris HCl 50 mM, NaCl 100 mM, EDTA 10 mM, pH 7.4). The homogenate was filtered through two layers of wet gauze and filtrate was centrifuged at 500 g for 10 min. The supernatant was subsequently centrifuged at 40,000 g for 45 min. The pellet thus obtained was resuspended in the same volume of assay buffer (Tris HCl 50 mM, EDTA 5 mM, pH 7.4) and were stored at −70° C. until the time of assay.
(§3) The membrane homogenates (150-250 μg protein) were incubated in 250 μl of assay buffer (Tris HCl 50 mM, EDTA 5 mM, pH 7.4) at 24-25° C. for 1 h. Non-specific binding was determined in the presence of 300 nM prazosin. The incubation was terminated by vacuum filtration over GF/B fibre filters. The filters were then washed with ice cold 50 mM Tris HCl buffer (pH 7.4). The filtermats were dried and bound radioactivity retained on filters was counted.The IC50 & Kd were estimated by using the non-linear curve fitting program using G Pad Prism software.

α1B adrenoceptor = molecular target: T5, α1B adrenoceptor (Rattus norvegicus, UniProt P15823); assay: Receptor binding assay, displacement of [3H]prazosin, rat liver membranes
T5 construct: from tissue; host or cells: rat liver membranes
T5 sequence (P15823 1-515): T2 sequence (P15823 1-515)
Description: Receptor binding assays were performed using native α-adrenoceptors. The affinity of different compounds for α1A and α1B adrenoceptor subtypes was evaluated by studying their ability to displace specific [^3H]prazosin binding from the membranes of rat submaxillary and liver respectively (Michel et al, Br J Pharmacol, 98, 883-889 (1989)). The binding assays were performed according to U'Prichard et al. (Eur J Pharmacol, 50:87-89 (1978)) with minor modifications.
as §2
as §3, with “software. The value of inhibition constant Ki was calculated from competitive binding studies by using Cheng & Prusoff equation (Cheng & Prusoff, Biochem Pharmacol, 1973,22: 3099-3108), Ki=IC50/(1+L/Kd) where L is the concentration of [^3H]prazosin used in the particular experiment (Table I).” for “software.”

[3] = [3H]prazosin displacement, rat submaxillary membranes, read-out: α1A (Rat submaxillary) Ki
[4] = [3H]prazosin displacement, rat liver membranes, read-out: α1B (Rat liver) Ki

SMILES	melting point [°C]	Selectivity α1A/α1B [1]	Selectivity α1A/α1D [1]	Kb [1] [nM]	Kb [2] [nM]	Kb (α1D adrenoceptor (aorta)) [nM]	Ki (α1A adrenoceptor; [3]) [nM]	Selectivity α1B/α1A (α1A adrenoceptor)	Ki (α1B adrenoceptor; [4]) [nM]	Ki (α1A adrenoceptor) [nM]	Ki (α1B adrenoceptor) [nM]
Cl.O=C1C2CC=CCC2C(=O)N1CCCN1CCN(c2ccccc2)CC1 (centres unmarked) [Compound 13, 2-[3-{4-(Phenyl)piperazin-1-yl}propyl]-3a,4,7,7a-tetrahydro-1H-isoindole-1,3(2H)-dione hydrochloride]	231 to 232	89	5.6	9.12	813	51.3	6.3	61	384	–	–
Cl.O=C1C2CC=CCC2C(=O)N1CCCN1CCN(c2cccc(C(F)(F)F)c2)CC1 (centres unmarked) [Compound 05, 2-[3-{4-(3-Trifluoromethylphenyl)piperazin-1-yl}propyl]-3a,4,7,7a-tetrahydro-1H-isoindole-1,3(2H)-dione hydrochloride]	215 to 217	–	–	–	–	–	–	2	–	259	> 500
Cc1ccc(Cl)cc1N1CCN(CCCN2C(=O)C3CC=CCC3C2=O)CC1.Cl (centres unmarked) [Compound 12, 2-[3-{4-(2-Methyl-5-chlorophenyl)piperazin-1-yl}propyl]-3a,4,7,7a-tetrahydro-1H-isoindole-1,3(2H)-dione hydrochloride]	231 to 232	–	–	–	–	–	8.66	5.9	51.3	–	–
COc1cc(F)ccc1N1CCN(CCCN2C(=O)C3CC=CCC3C2=O)CC1.Cl (centres unmarked) [Compound 18, 2-[3-{4-(4-Fluoro-2-methoxyphenyl)piperazin-1-yl}propyl]-3a,4,7,7a-tetrahydro-1H-isoindole-1,3(2H)-dione hydrochloride]	232 to 233	–	–	–	–	–	10	27	271	–	–
Cl.O=C1C2CC=CCC2C(=O)N1CCCN1CCN(c2ccc(F)cc2F)CC1 (centres unmarked) [Compound 10, 2-[3-{4-(2,4-Difluorophenyl)piperazin-1-yl}propyl]-3a,4,7,7a-tetrahydro-1H-isoindole-1,3(2H)-dione hydrochloride]	218.2 to 219	–	–	–	–	–	62	2.7	165	–	–
Cc1cccc(C)c1N1CCN(CCCN2C(=O)C3CC=CCC3C2=O)CC1.Cl (centres unmarked) [Compound 22, 2-[3-{4-(2,6-Dimethylphenyl)piperazin-1-yl}propyl]-3a,4,7,7a-tetrahydro-1H-isoindole-1,3(2H)-dione hydrochloride]	223 to 224	–	–	–	–	–	208	2.4	> 500	–	–
Cc1ccc(N2CCN(CCCN3C(=O)C4CC=CCC4C3=O)CC2)cc1C.Cl (centres unmarked) [Compound 07, 2-[3-{4-(3,4-Dimethylphenyl)piperazin-1-yl}propyl]-3a,4,7,7a-tetrahydro-1H-isoindole-1,3(2H)-dione hydrochloride]	194 to 196	–	–	–	–	–	183	2.7	> 500	–	–

Second part, led by results:

melting point [°C]	Selectivity α1A/α1B [1]	Selectivity α1A/α1D [1]	Kb [1] [nM]	Kb [2] [nM]	Kb (α1D adrenoceptor (aorta)) [nM]	Ki (α1A adrenoceptor; [3]) [nM]	Selectivity α1B/α1A (α1A adrenoceptor)	Ki (α1B adrenoceptor; [4]) [nM]	SMILES	Ki (α1A adrenoceptor) [nM]	Ki (α1B adrenoceptor) [nM]
246 to 248	–	3.24	5.01	–	16.2	2.1	110	232	CCOc1ccccc1N1CCN(C(C)CCN2C(=O)C3CC=CCC3C2=O)CC1.Cl (centres unmarked) [Compound 31, 2-[3-{4-(2-Ethoxyphenyl)piperazin-1-yl}-3-methylpropyl]-3a,4,7,7a-tetrahydro-1H-isoindole-1,3(2H)-dione hydrochloride]	–	–
219 to 220	18	–	87.1	1580	33.9	3.45	205	708	COc1ccccc1N1CCN(C(C)CCN2C(=O)C3CC=CCC3C2=O)CC1.Cl (centres unmarked) [Compound 29, 2-[3-{4-(2-Methoxyphenyl)piperazin-1-yl}-3-methylpropyl]-3a,4,7,7a-tetrahydro-1H-isoindole-1,3(2H)-dione hydrochloride]	–	–
165 to 166	54	–	1.26	67.6	1	3.3	>151	> 500	CCCCCCOc1ccccc1N1CCN(CCCN2C(=O)C3CC=CCC3C2=O)CC1.Cl (centres unmarked) [Compound 25, 2-[3-{4-(2-n-Hexyloxyphenyl)piperazin-1-yl}propyl]-3a,4,7,7a-tetrahydro-1H-isoindole-1,3(2H)-dione hydrochloride]	–	–
